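Values below derive from 48-hour exposures of cells grown in 96-well plates, with endpoints linearly interpolated between the two concentrations bracketing the appropriate inhibition level. TGI: total growth inhibition.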
Key:
Test in all cases: growth of human tumour cells (NCI), 48 h
SW-620 colon = system: SW-620 colon
ACHN renal = system: ACHN renal
OVCAR-8 ovarian = system: OVCAR-8 ovarian
U251 CNS = system: U251 CNS
SK-MEL-2 melanoma = system: SK-MEL-2 melanoma
HCC-2998 colon = system: HCC-2998 colon
HCT-15 colon = system: HCT-15 colon
NCI/ADR-RES ovarian = system: NCI/ADR-RES ovarian
K-562 leukemia = system: K-562 leukemia
NCI-H23 lung = system: NCI-H23 lung
KM12 colon = system: KM12 colon
SK-OV-3 ovarian = system: SK-OV-3 ovarian
RXF 393 renal = system: RXF 393 renal
M14 melanoma = system: M14 melanoma
MDA-N = system: MDA-N
MALME-3M melanoma = system: MALME-3M melanoma
PC-3 prostate = system: PC-3 prostate
MCF7 breast = system: MCF7 breast
NCI-H522 lung = system: NCI-H522 lung
NCI-H460 lung = system: NCI-H460 lung
COLO 205 colon = system: COLO 205 colon
T-47D breast = system: T-47D breast
DU-145 prostate = system: DU-145 prostate
OVCAR-4 ovarian = system: OVCAR-4 ovarian
LOX IMVI melanoma = system: LOX IMVI melanoma
CAKI-1 renal = system: CAKI-1 renal
SF-268 CNS = system: SF-268 CNS
HCT-116 colon = system: HCT-116 colon
HOP-62 NSCLC = system: HOP-62 NSCLC
UO-31 renal = system: UO-31 renal
OVCAR-3 ovarian = system: OVCAR-3 ovarian
NCI-H226 lung = system: NCI-H226 lung
RPMI-8226 leukemia = system: RPMI-8226 leukemia
SNB-19 CNS = system: SNB-19 CNS
OVCAR-5 ovarian = system: OVCAR-5 ovarian
HL-60(TB) leukemia = system: HL-60(TB) leukemia
SF-295 CNS = system: SF-295 CNS
SK-MEL-5 melanoma = system: SK-MEL-5 melanoma
SNB-75 CNS = system: SNB-75 CNS
SF-539 CNS = system: SF-539 CNS
A549 NSCLC = system: A549 NSCLC
BT-549 breast = system: BT-549 breast
MDA-MB-435 = system: MDA-MB-435
786-0 renal = system: 786-0 renal
HS 578T breast = system: HS 578T breast
SN12C renal = system: SN12C renal
SK-MEL-28 melanoma = system: SK-MEL-28 melanoma
TK-10 renal = system: TK-10 renal
A498 renal = system: A498 renal
SR leukemia = system: SR leukemia
IGROV1 ovarian = system: IGROV1 ovarian
EKVX NSCLC = system: EKVX NSCLC
CCRF-CEM leukemia = system: CCRF-CEM leukemia
MDA-MB-231 breast = system: MDA-MB-231 breast
UACC-257 melanoma = system: UACC-257 melanoma
MOLT-4 leukemia = system: MOLT-4 leukemia
UACC-62 melanoma = system: UACC-62 melanoma
HT29 colon = system: HT29 colon
HOP-92 NSCLC = system: HOP-92 NSCLC

## CCOC(=O)N1CC2(C(=O)OC)C=CC1C(C(=O)OC)C2 (configuration not stated)
SW-620 colon
  TGI: > 100 µM
ACHN renal
  TGI: > 100 µM
OVCAR-8 ovarian
  TGI: > 100 µM
U251 CNS
  TGI: > 100 µM
SK-MEL-2 melanoma
  TGI: > 100 µM
HCC-2998 colon
  TGI: > 100 µM
HCT-15 colon
  TGI: > 100 µM
NCI/ADR-RES ovarian
  TGI: > 100 µM
K-562 leukemia
  TGI: > 100 µM
NCI-H23 lung
  TGI: > 100 µM
KM12 colon
  TGI: > 100 µM
SK-OV-3 ovarian
  TGI: > 100 µM
RXF 393 renal
  TGI: > 100 µM
M14 melanoma
  TGI: > 100 µM
MDA-N
  TGI: > 100 µM
MALME-3M melanoma
  TGI: > 100 µM
PC-3 prostate
  TGI: > 100 µM
MCF7 breast
  TGI: > 100 µM
NCI-H522 lung
  TGI: > 100 µM
NCI-H460 lung
  TGI: > 100 µM
COLO 205 colon
  TGI: > 100 µM
T-47D breast
  TGI: > 100 µM
DU-145 prostate
  TGI: > 100 µM
OVCAR-4 ovarian
  TGI: > 100 µM
LOX IMVI melanoma
  TGI: > 100 µM
CAKI-1 renal
  TGI: > 100 µM
SF-268 CNS
  TGI: > 100 µM
HCT-116 colon
  TGI: > 100 µM
HOP-62 NSCLC
  TGI: > 100 µM
UO-31 renal
  TGI: > 100 µM
OVCAR-3 ovarian
  TGI: > 100 µM
NCI-H226 lung
  TGI: > 100 µM
RPMI-8226 leukemia
  TGI: > 100 µM
SNB-19 CNS
  TGI: > 100 µM
OVCAR-5 ovarian
  TGI: > 100 µM
HL-60(TB) leukemia
  TGI: > 100 µM
SF-295 CNS
  TGI: > 100 µM
SK-MEL-5 melanoma
  TGI: > 100 µM
SNB-75 CNS
  TGI: > 100 µM
SF-539 CNS
  TGI: > 100 µM
A549 NSCLC
  TGI: > 100 µM
BT-549 breast
  TGI: > 100 µM
MDA-MB-435
  TGI: > 100 µM
786-0 renal
  TGI: > 100 µM
HS 578T breast
  TGI: > 100 µM
SN12C renal
  TGI: > 100 µM
SK-MEL-28 melanoma
  TGI: > 100 µM
TK-10 renal
  TGI: > 100 µM
A498 renal
  TGI: > 100 µM
SR leukemia
  TGI: > 100 µM
IGROV1 ovarian
  TGI: > 100 µM
EKVX NSCLC
  TGI: > 100 µM
CCRF-CEM leukemia
  TGI: > 100 µM
MDA-MB-231 breast
  TGI: > 100 µM
UACC-257 melanoma
  TGI: > 100 µM
MOLT-4 leukemia
  TGI: > 100 µM
UACC-62 melanoma
  TGI: > 100 µM

## CSc1c(CC(=O)O)n(Cc2ccccc2)c2ccccc12
SW-620 colon
  TGI: > 100 µM
ACHN renal
  TGI: > 100 µM
OVCAR-8 ovarian
  TGI: > 100 µM
U251 CNS
  TGI: > 100 µM
SK-MEL-2 melanoma
  TGI: > 100 µM
HCT-15 colon
  TGI: > 100 µM
NCI/ADR-RES ovarian
  TGI: > 100 µM
K-562 leukemia
  TGI: > 100 µM
NCI-H23 lung
  TGI: > 100 µM
HT29 colon
  TGI: > 100 µM
KM12 colon
  TGI: > 100 µM
SK-OV-3 ovarian
  TGI: > 100 µM
RXF 393 renal
  TGI: > 100 µM
M14 melanoma
  TGI: > 100 µM
MDA-N
  TGI: > 100 µM
MALME-3M melanoma
  TGI: > 100 µM
PC-3 prostate
  TGI: > 100 µM
MCF7 breast
  TGI: > 100 µM
NCI-H522 lung
  TGI: > 100 µM
NCI-H460 lung
  TGI: > 100 µM
COLO 205 colon
  TGI: > 100 µM
T-47D breast
  TGI: > 100 µM
DU-145 prostate
  TGI: > 100 µM
OVCAR-4 ovarian
  TGI: > 100 µM
LOX IMVI melanoma
  TGI: > 100 µM
CAKI-1 renal
  TGI: > 100 µM
SF-268 CNS
  TGI: > 100 µM
HCT-116 colon
  TGI: > 100 µM
HOP-62 NSCLC
  TGI: > 100 µM
UO-31 renal
  TGI: > 100 µM
OVCAR-3 ovarian
  TGI: > 100 µM
RPMI-8226 leukemia
  TGI: > 100 µM
SNB-19 CNS
  TGI: > 100 µM
OVCAR-5 ovarian
  TGI: > 100 µM
HL-60(TB) leukemia
  TGI: > 100 µM
SF-295 CNS
  TGI: > 100 µM
SK-MEL-5 melanoma
  TGI: > 100 µM
SNB-75 CNS
  TGI: > 100 µM
SF-539 CNS
  TGI: > 100 µM
A549 NSCLC
  TGI: > 100 µM
BT-549 breast
  TGI: > 100 µM
HOP-92 NSCLC
  TGI: > 100 µM
MDA-MB-435
  TGI: > 100 µM
786-0 renal
  TGI: > 100 µM
HS 578T breast
  TGI: > 100 µM
SN12C renal
  TGI: > 100 µM
SK-MEL-28 melanoma
  TGI: > 100 µM
TK-10 renal
  TGI: > 100 µM
A498 renal
  TGI: > 100 µM
SR leukemia
  TGI: > 100 µM
IGROV1 ovarian
  TGI: > 100 µM
EKVX NSCLC
  TGI: > 100 µM
CCRF-CEM leukemia
  TGI: > 100 µM
MDA-MB-231 breast
  TGI: > 100 µM
UACC-257 melanoma
  TGI: > 100 µM
MOLT-4 leukemia
  TGI: > 100 µM
UACC-62 melanoma
  TGI: > 100 µM

## OCCOCCN1CCN(c2nc(N3CCCC3)c3nc(Cl)c(NCc4ccccc4)nc3n2)CC1
SW-620 colon
  TGI: 44.6 µM
ACHN renal
  TGI: 27.2 µM
OVCAR-8 ovarian
  TGI: 32.2 µM
U251 CNS
  TGI: 25.5 µM
SK-MEL-2 melanoma
  TGI: 32 µM
HCC-2998 colon
  TGI: 15 µM
HCT-15 colon
  TGI: 15.3 µM
NCI/ADR-RES ovarian
  TGI: 31.1 µM
K-562 leukemia
  TGI: 16.4 µM
NCI-H23 lung
  TGI: 31.4 µM
HT29 colon
  TGI: 13.7 µM
KM12 colon
  TGI: 26.8 µM
SK-OV-3 ovarian
  TGI: 31.9 µM
RXF 393 renal
  TGI: 11.8 µM
M14 melanoma
  TGI: 24.8 µM
MDA-N
  TGI: 22.7 µM
MALME-3M melanoma
  TGI: 29.9 µM
PC-3 prostate
  TGI: 27.1 µM
MCF7 breast
  TGI: 29.5 µM
NCI-H522 lung
  TGI: 31.5 µM
NCI-H460 lung
  TGI: 24.7 µM
COLO 205 colon
  TGI: 21.7 µM
T-47D breast
  TGI: 30.6 µM
DU-145 prostate
  TGI: 25.3 µM
OVCAR-4 ovarian
  TGI: 30.8 µM
LOX IMVI melanoma
  TGI: 23 µM
CAKI-1 renal
  TGI: 31.1 µM
SF-268 CNS
  TGI: 31.9 µM
HCT-116 colon
  TGI: 26.4 µM
HOP-62 NSCLC
  TGI: 26.7 µM
UO-31 renal
  TGI: 21.7 µM
OVCAR-3 ovarian
  TGI: 29.2 µM
NCI-H226 lung
  TGI: 40.7 µM
RPMI-8226 leukemia
  TGI: 27.9 µM
SNB-19 CNS
  TGI: 29.8 µM
OVCAR-5 ovarian
  TGI: 28.9 µM
HL-60(TB) leukemia
  TGI: 29 µM
SF-295 CNS
  TGI: 29.3 µM
SK-MEL-5 melanoma
  TGI: 17.9 µM
SNB-75 CNS
  TGI: 36.5 µM
SF-539 CNS
  TGI: 88.3 µM
A549 NSCLC
  TGI: 28.4 µM
BT-549 breast
  TGI: 29.1 µM
HOP-92 NSCLC
  TGI: 26.2 µM
MDA-MB-435
  TGI: 26 µM
786-0 renal
  TGI: 26.5 µM
HS 578T breast
  TGI: 43.5 µM
SN12C renal
  TGI: 29.4 µM
SK-MEL-28 melanoma
  TGI: 30.2 µM
TK-10 renal
  TGI: 25 µM
SR leukemia
  TGI: 17.8 µM
IGROV1 ovarian
  TGI: 33.9 µM
EKVX NSCLC
  TGI: 27.1 µM
CCRF-CEM leukemia
  TGI: 32.9 µM
MDA-MB-231 breast
  TGI: 32.7 µM
UACC-257 melanoma
  TGI: 27.4 µM
MOLT-4 leukemia
  TGI: 27.8 µM
UACC-62 melanoma
  TGI: 27.3 µM

Reference: PubChem BioAssay (NCI)
